Experimental data: patent US11248246B2, “Beta-glucosidase for producing glucose and laminarioligosaccharide from sea weed” (Korea University Research and Business Foundation, priority 2018, dated 2022)
“Also recorded” adds a separate entry of the source.

Key:
[1] = molecular target: T1, Saccharophagus degradans 2-40^T β-glucosidase Bgl1B, recombinant (6 histidine residues at C-terminus), SEQ ID NO: 1 (nucleotide SEQ ID NO: 2) (Saccharophagus degradans, UniProt Q21KX3); experiment: Enzymatic reaction rate of Bgl1B for various substrates (Lineweaver-Burk plot); type: biochemical; conditions: for Vmax / kcat: pH 6, 40° C., substrate 0.1-0.4% (w/v)
T1 sequence (Q21KX3 1-444): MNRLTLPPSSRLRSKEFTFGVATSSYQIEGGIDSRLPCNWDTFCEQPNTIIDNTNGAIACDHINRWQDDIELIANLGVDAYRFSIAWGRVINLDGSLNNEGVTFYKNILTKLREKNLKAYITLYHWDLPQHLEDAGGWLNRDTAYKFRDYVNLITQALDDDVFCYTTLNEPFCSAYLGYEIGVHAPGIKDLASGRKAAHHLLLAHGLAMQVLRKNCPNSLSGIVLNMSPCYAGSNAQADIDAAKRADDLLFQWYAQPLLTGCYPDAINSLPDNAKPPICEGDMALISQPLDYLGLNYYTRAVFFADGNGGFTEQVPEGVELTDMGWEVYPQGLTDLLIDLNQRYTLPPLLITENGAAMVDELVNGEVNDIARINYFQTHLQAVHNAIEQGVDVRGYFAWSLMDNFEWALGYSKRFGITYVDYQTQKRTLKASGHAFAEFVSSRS
Experimental: To obtain the genomic DNA of Saccharophagus degradans 2-40^T (ATCC43961), Saccharophagus degradans 2-40^T was cultured in a minimal medium containing 2.3 g of instant ocean sea salt, 20 mM Tris-HCl, 2 g of glucose, 1 g of yeast extract, and 0.5 g of ammonium chloride per 1 L at 30° C. for 12 hours. The genomic DNA was extracted using a commercial DNA isolation kit (Qiagen, Valencia, Calif., USA). The target gene bgl1B was amplified from the genomic DNA by PCR. […] To purify the protein by affinity chromatography, the nucleotide sequence of a gene encoding 6 histidine residues at the C-terminus was added. The PCR product and a pET21α vector were digested with NdeI and NotI, respectively, and ligated to construct a pET21α-Bgl1B plasmid. The plasmid was transformed into Escherichia coli DH5α.
To overexpress the obtained gene, the gene was transformed into a protein-expressing host, Escherichia coli B121 (DE3). The cells were cultured in a Luria-Bertani (LB) broth containing 50 mg/L of ampicillin at 37° C. until absorbance at 600 nm reached 0.6. To induce protein expression, 0.1 mM IPTG was added and the induction temperature was set at 16° C., and a protein was allowed to be overexpressed in a water-soluble form for 16 hours. After culture, centrifugation was performed to recover the cells, the cells were released using a 20 mM Tris-HCl buffer (pH 7.4), and then disrupted by ultrasonication and centrifuged again to obtain a supernatant. The recombinant protein was purified using a HisTrap column (GE Healthcare, Piscataway, USA). The purified protein was concentrated using an Amicon Ultra Centrifugal filter (30,000 molecular weight cut-off; Millipore, Billerica, Mass., USA), and the concentration of the protein was measured using a bicinchoninic acid (BCA) protein assay kit (Thermo Fisher Scientific, San Hose, Calif., USA).
(§1) To confirm the enzymatic reaction rate of the Bgl1B protein for various substrates, the Bgl1B protein was allowed to react with each substrate at various concentrations of 0.1-0.4% (w/v) at pH 6 and 40° C. Vmax, Km, and kcat, which are parameters related to an enzymatic reaction rate, were determined from the Lineweaver-Burk plot.

Bgl1B protein = experiment: Effect of metal ions on the activity of the Bgl1B protein; type: biochemical, Saccharophagus degradans 2-40^T; conditions: for Relative enzymatic activity (%) / influence on enzymatic activity: 10 mM metal ion, 0.1% (w/v) cellobiose; for Relative enzymatic activity (%): relative to no metal ion
Novozyme 188 = experiment: Enzymatic reaction rate of commercialized enzyme Novozyme 188 for substrates (comparison); type: biochemical; conditions: pH 6, 40° C. (as for Bgl1B)
Experimental: as §1

[2] = substrate: OC[C@H]1O[C@@H](O[C@H]2[C@H](O)[C@@H](CO)OC(O)[C@@H]2O)[C@H](O)[C@@H](O)[C@@H]1O; experiment: purified protein, by the assay type; conditions: other: pH 6, 40° C., substrate 0.1-0.4% (w/v)
[3] = substrate: OC[C@H]1O[C@@H](O[C@H]2[C@H](O)[C@@H](O)C(O)O[C@@H]2CO)[C@H](O)[C@@H](O)[C@@H]1O; experiment: purified protein, by the assay type; conditions: other: pH 6, 40° C., substrate 0.1-0.4% (w/v)
[4] = substrate: OC[C@H]1O[C@@H](O[C@H]2[C@H](O)[C@@H](O)C(O)O[C@@H]2CO)[C@H](O)[C@@H](O)[C@H]1O; experiment: purified protein, by the assay type; conditions: other: pH 6, 40° C., substrate 0.1-0.4% (w/v)
[5] = substrate: OC[C@H]1O[C@@H](O[C@H]2[C@H]3OC[C@@H]2OC(O)[C@H]3O)[C@H](O)[C@@H](O)[C@H]1O; experiment: purified protein, by the assay type; conditions: other: pH 6, 40° C., substrate 0.1-0.4% (w/v)
[6] = substrate: OC[C@H]1O[C@@H](OC[C@H]2OC(O)[C@H](O)[C@@H](O)[C@@H]2O)[C@H](O)[C@@H](O)[C@@H]1O; experiment: purified protein, by the assay type; conditions: other: pH 6, 40° C., substrate 0.1-0.4% (w/v)

## OC[C@H]1O[C@@H](O[C@H]2[C@H]3OC[C@@H]2OC(O)[C@H]3O)[C@H](O)[C@@H](O)[C@H]1O (some centres unmarked) [Agarobiose, agarobiose]
[1]
  Vmax: 3.1 × 10^−1 U/mg protein
  kcat: 0.26 s⁻¹

## [Ca+2] [Ca^2+]
Bgl1B protein
  Relative enzymatic activity (%): 82.0 ± 1.5%

## OC[C@H]1O[C@@H](O[C@H]2[C@H](O)[C@@H](O)C(O)O[C@@H]2CO)[C@H](O)[C@@H](O)[C@@H]1O (some centres unmarked) [Cellobiose, cellobiose]
Novozyme 188
  Km: 3.4 mM
  Vmax: 3.9 × 10^0 U/mg protein
  kcat: 7.8 × 10^0 s^−1
[1]
  Vmax: 1.6 × 10^1 U/mg protein
  kcat: 13 s⁻¹

## [Co+2] [Co^2+]
Bgl1B protein
  influence on enzymatic activity: does not have a great influence; also recorded: did not have a great influence
  Relative enzymatic activity (%): 95.7 ± 1.6%

## [Cu+2] [Cu^2+]
Bgl1B protein
  Relative enzymatic activity (%): 0.0 ± 0.0%

## [Fe+2] [Fe^2+]
Bgl1B protein
  Relative enzymatic activity (%): 8.2 ± 0.3%

## OC[C@H]1O[C@@H](OC[C@H]2OC(O)[C@H](O)[C@@H](O)[C@@H]2O)[C@H](O)[C@@H](O)[C@@H]1O (some centres unmarked) [Gentiobiose, gentiobiose]
[1]
  Vmax: 1.1 × 10^0 U/mg protein
  kcat: 0.88 s⁻¹

## OC[C@H]1O[C@@H](O[C@H]2[C@H](O)[C@@H](O)C(O)O[C@@H]2CO)[C@H](O)[C@@H](O)[C@H]1O (some centres unmarked) [Lactose, lactose]
[1]
  Vmax: 1.0 × 10^0 U/mg protein
  kcat: 0.83 s⁻¹

## OC[C@H]1O[C@@H](O[C@H]2[C@H](O)[C@@H](CO)OC(O)[C@@H]2O)[C@H](O)[C@@H](O)[C@@H]1O (some centres unmarked) [Laminaribiose, laminaribiose]
Novozyme 188
  Km: 2.5 mM
  Vmax: 4.2 × 10^−1 U/mg protein
  kcat: 0.85 s⁻¹
[1]; Bgl1B compared to Novozyme 188
  Vmax, fold greater than Novozyme 188: 259 fold
  catalytic efficiency, fold greater than Novozyme 188: 108 fold
  kcat, fold greater than Novozyme 188: 108 fold
[1]
  Vmax: 1.1 × 10^2 U/mg protein
  kcat: 91 s⁻¹

## [Mg+2] [Mg^2+]
Bgl1B protein
  influence on enzymatic activity: does not have a great influence; also recorded: did not have a great influence
  Relative enzymatic activity (%): 98.9 ± 2.3%

## [Mn+2] [Mn^2+]
Bgl1B protein
  Relative enzymatic activity (%): 52.6 ± 2.1%
Bgl1B protein; metal ion, summary statement
  inhibits enzymatic activity by: about 50%

## [Ni+2] [Ni^2+]
Bgl1B protein
  influence on enzymatic activity: does not have a great influence; also recorded: did not have a great influence
  Relative enzymatic activity (%): 90.3 ± 2.7%

B1: Saccharophagus degradans 2-40^T β-glucosidase Bgl1B, recombinant (6 histidine residues at C-terminus), SEQ ID NO: 1 (nucleotide SEQ ID NO: 2) (Saccharophagus … (protein)
chain: MNRLTLPPSSRLRSKEFTFGVATSSYQIEGGIDSRLPCNWDTFCEQPNTIIDNTNGAIACDHINRWQDDIELIANLGVDAYRFSIAWGRVINLDGSLNNEGVTFYKNILTKLREKNLKAYITLYHWDLPQHLEDAGGWLNRDTAYKFRDYVNLITQALDDDVFCYTTLNEPFCSAYLGYEIGVHAPGIKDLASGRKAAHHLLLAHGLAMQVLRKNCPNSLSGIVLNMSPCYAGSNAQADIDAAKRADDLLFQWYAQPLLTGCYPDAINSLPDNAKPPICEGDMALISQPLDYLGLNYYTRAVFFADGNGGFTEQVPEGVELTDMGWEVYPQGLTDLLIDLNQRYTLPPLLITENGAAMVDELVNGEVNDIARINYFQTHLQAVHNAIEQGVDVRGYFAWSLMDNFEWALGYSKRFGITYVDYQTQKRTLKASGHAFAEFVSSRS
[2]
  Km: 0.99 mM
[3]
  Km: 20 mM
[4]
  Km: 20 mM
[5]
  Km: 69 mM
[6]
  Km: 13 mM
